Columns and labels:
[1] = test system: isolated rings of aortae; test: Aortic ring relaxation; set-up: species or system rat; conditions: for EC50: Rattus norvegicus, intact aortic rings contracted with phenylepinephrine, mean, S.D., read-out: EC50 for relaxation
Description: Isolated rings of aortae from male Sprague-Dawley rats (250–300 g) were prepared for isometric tension measurements and were equilibrated for 1 h at an optimal resting tension of 10 mN. Tissues were contracted submaximally with 0.3 µM phenylepinephrine, and after 10–15 m cumulative concentration-response curves for SERMs (0.01–30 µM) were obtained. Some aortic ring preparations were denuded of the endothelium, or were treated with 100 µM L-NAME, prior to assessment of SERM-induced relaxation responses.

[2] = test system: hippocampal slices from 16-month old male 3×Tg mice; test: LTP in CA1 of hippocampal slices after theta burst stimulation; set-up: species or system mouse; conditions: hippocampal slices from C57Bl/6 mice; 100 nM; absence of DMA
Description: LTP in the CA1 field of the hippocampus is a well-studied cellular model for learning and memory. […] At 16 months, an advanced age at which Alzheimer's-like neuropathology is well developed in these animals, studies on LTP have not previously been reported. Nevertheless, we observed a robust, reproducible deficit in LTP in these aged transgenic mice, with field excitatory post-synaptic potentials (fEPSP) showing an end fEPSP of 97.0±6.4% of baseline at 45 min post-TBS, compared to 134.7±10.3% observed in the wild type (WT) transgenic background controls (Fig. 3A,B).
Figure 3 Reversal of LTP deficit in aged 3×Tg mice by SERMs is GPR30 dependent. LTP was measured after TBS in the CA1 region of hippocampal sections from 16 month male 3×Tg mice or WT controls. Test compounds (SERMs 100 nM; G15 100 nM) were added 30 min prior to TBS. […] (C) Secondary analysis of theta bursts indicate action both during induction and stabilization of LTP, through a GPR30 dependent mechanism.
All experiments used 16-month old male 3×Tg transgenic or age-matched WT background controls. For electrophysiology, mice were rapidly decapitated, and brains were removed into an ice-cold aCSF solution (in mM: NaCl 124, KCl 3.0, KH2PO4 1.25, NaHCO3 25.7, D-glucose 10, L-ascorbate 2.0, MgSO4 2.5, and CaCl2 3.3) and sectioned on a tissue chopper into 400 µm sections. Slices were transported to a 37°C solution of aCSF, continuously bubbled with 95% O2/5% CO2, and allowed to recover at least 60 min before experimentation. After placement of a stimulation electrode in the Schaffer commissural fibers and recording electrodes with 2 M NaCl solution into the stratum radiatum of the CA1 area, stimulus intensity was set to evoke submaximal fEPSP and continuously monitored at 20 s intervals for at least 15 min to establish a stable baseline. SERMs (100 nM) and G15 (100 nM) were prepared fresh in perfusate and started at least 30 min before LTP induction to reach a new baseline after enhancement of basal synaptic transmission was observed. […] Resulting fEPSP was monitored at 20 s intervals for ∼60 min post TBS.

SMILES	EC50 [1]	maximal relaxation response, comparison ([1]; intact aortic rings)	efficacy (maximal relaxation) ([1]; intact aortic rings)	effect on LTP, compound alone [2]
COc1ccc(-c2sc3cc(O)ccc3c2Oc2ccc(OCCN3CCCCC3)cc2)cc1 [arzoxifene, Arzoxifene]	3.3 ± 2.5 µM	significantly less than those for DMA and raloxifene		
O=C(c1ccc(OCCN2CCCCC2)cc1)c1c(-c2ccc(O)cc2)sc2cc(O)ccc12 [raloxifene, Raloxifene]	4 ± 2.9 µM		~100 % relaxation	
Brc1cc2c(cc1[C@@H]1Nc3ccccc3[C@@H]3C=CC[C@@H]31)OCO2 [G15]				without effect
